Source: the OligoGym collection
Oligonucleotides are written 5' to 3', each unit as a sugar letter and its base; * is a phosphorothioate linkage, no mark a phosphodiester; rarer units and linkages stand in square brackets, end groups in braces. Plain capitals give the bases only. d = 2'-deoxy (DNA); r = 2'-OH (RNA)

The substances below were run against UBE2H (assay: reporter assay of Huesken 2005). Conditions: siRNA.
Note: test concentration or dose not given here.

Row | Substance | normalised inhibition (eCFP-eYFP dual reporter)
1 | sense rUrGrArUrCrUrUrArCrCrArArUrArUrArUrUrUdTdT / antisense rArArArUrArUrArUrUrGrGrUrArArGrArUrCrAdTdA | 68.4%
2 | sense rUrGrUrArCrCrUrCrCrArCrCrGrArCrCrArGrAdTdT / antisense rUrCrUrGrGrUrCrGrGrUrGrGrArGrGrUrArCrAdTdG | 95.7%
3 | sense rUrGrUrArGrUrGrArArGrUrUrUrUrArUrGrGrAdTdT / antisense rUrCrCrArUrArArArArCrUrUrCrArCrUrArCrAdAdA | 75.6%
4 | sense rUrUrArUrGrGrArCrCrArCrArArGrGrArArCrAdTdT / antisense rUrGrUrUrCrCrUrUrGrUrGrGrUrCrCrArUrArAdAdA | 91.7%

These substances were tested against RHOQ (assay: reporter assay of Huesken 2005). Conditions: siRNA.

Row | Substance | normalised inhibition (eCFP-eYFP dual reporter)
5 | sense rArArArUrCrArArUrUrArArCrArUrArUrUrArGdTdT / antisense rCrUrArArUrArUrGrUrUrArArUrUrGrArUrUrUdAdT | 46.2%
6 | sense rArArArUrGrArCrArGrCrCrUrUrArArArUrGrCdTdT / antisense rGrCrArUrUrUrArArGrGrCrUrGrUrCrArUrUrUdTdC | 42.3%
7 | sense rArArArUrGrGrUrGrGrUrUrCrArCrArUrUrArAdTdT / antisense rUrUrArArUrGrUrGrArArCrCrArCrCrArUrUrUdCdT | 85.8%
8 | sense rArArUrArUrArArGrCrArUrCrArCrCrUrUrCrCdTdT / antisense rGrGrArArGrGrUrGrArUrGrCrUrUrArUrArUrUdTdT | 51.8%
9 | sense rArArUrGrCrUrCrArUrArUrCrArGrUrCrArCrAdTdT / antisense rUrGrUrGrArCrUrGrArUrArUrGrArGrCrArUrUdTdA | 76%
10 | sense rArCrArCrUrArArArCrUrUrUrUrArUrArCrUrUdTdT / antisense rArArGrUrArUrArArArArGrUrUrUrArGrUrGrUdTdC | 76.1%
11 | sense rArCrArGrArUrUrGrGrGrUrArArUrGrGrArArCdTdT / antisense rGrUrUrCrCrArUrUrArCrCrCrArArUrCrUrGrUdGdC | 47.1%
12 | sense rArCrUrUrUrCrUrUrArUrUrUrArArUrUrUrUrGdTdT / antisense rCrArArArArUrUrArArArUrArArGrArArArGrUdTdA | 43.6%
13 | sense rArGrArUrUrGrGrGrUrArArUrGrGrArArCrArCdTdT / antisense rGrUrGrUrUrCrCrArUrUrArCrCrCrArArUrCrUdGdT | 72%
14 | sense rArGrGrArUrGrUrArCrUrGrUrCrUrUrGrUrUrGdTdT / antisense rCrArArCrArArGrArCrArGrUrArCrArUrCrCrUdAdG | 81.7%
15 | sense rArUrArArArArUrUrGrArArArGrGrArArUrUrGdTdT / antisense rCrArArUrUrCrCrUrUrUrCrArArUrUrUrUrArUdCdT | 36.4%
16 | sense rArUrArArArUrCrArArUrUrArArCrArUrArUrUdTdT / antisense rArArUrArUrGrUrUrArArUrUrGrArUrUrUrArUdAdC | 38.4%
17 | sense rArUrArArUrGrGrArUrGrCrArUrCrArGrArUrAdTdT / antisense rUrArUrCrUrGrArUrGrCrArUrCrCrArUrUrArUdCdT | 80.8%
18 | sense rArUrCrArGrUrCrArCrArArArUrCrUrArGrGrAdTdT / antisense rUrCrCrUrArGrArUrUrUrGrUrGrArCrUrGrArUdAdT | 75.3%
19 | sense rArUrCrUrUrArUrGrUrArArCrUrUrUrCrUrUrAdTdT / antisense rUrArArGrArArArGrUrUrArCrArUrArArGrArUdTdC | 59.1%
20 | sense rArUrGrGrArArCrArCrUrArArArCrUrUrUrUrAdTdT / antisense rUrArArArArGrUrUrUrArGrUrGrUrUrCrCrArUdTdA | 82.1%
21 | sense rArUrGrGrArArUrCrUrUrArUrGrUrArArCrUrUdTdT / antisense rArArGrUrUrArCrArUrArArGrArUrUrCrCrArUdTdT | 51.1%
22 | sense rArUrGrGrArUrGrCrArUrCrArGrArUrArArUrGdTdT / antisense rCrArUrUrArUrCrUrGrArUrGrCrArUrCrCrArUdTdA | 82.5%
23 | sense rCrArArArUrCrUrArGrGrArUrGrUrArCrUrGrUdTdT / antisense rArCrArGrUrArCrArUrCrCrUrArGrArUrUrUrGdTdG | 79.4%
24 | sense rCrArArGrArArArUrGrGrUrGrGrUrUrCrArCrAdTdT / antisense rUrGrUrGrArArCrCrArCrCrArUrUrUrCrUrUrGdGdA | 84.9%
25 | sense rCrArCrArUrUrArArArGrUrArUrCrArUrGrGrCdTdT / antisense rGrCrCrArUrGrArUrArCrUrUrUrArArUrGrUrGdAdA | 62.4%
26 | sense rCrArGrArUrArArUrGrGrArUrGrCrArUrCrArGdTdT / antisense rCrUrGrArUrGrCrArUrCrCrArUrUrArUrCrUrGdAdT | 80.4%
27 | sense rCrArGrArUrUrGrGrGrUrArArUrGrGrArArCrAdTdT / antisense rUrGrUrUrCrCrArUrUrArCrCrCrArArUrCrUrGdTdG | 86.3%
28 | sense rCrArUrGrCrArUrCrArGrArUrArArUrGrGrArUdTdT / antisense rArUrCrCrArUrUrArUrCrUrGrArUrGrCrArUrGdGdC | 72.3%

Row | Substance | normalised inhibition (eCFP-eYFP dual reporter)
29 | sense rCrArUrUrUrArArArCrUrUrGrCrUrGrUrUrGrCdTdT / antisense rGrCrArArCrArGrCrArArGrUrUrUrArArArUrGdTdA | 74.6%
30 | sense rCrArUrUrUrGrGrArUrGrUrCrUrUrCrUrUrUrCdTdT / antisense rGrArArArGrArArGrArCrArUrCrCrArArArUrGdTdC | 73.6%
31 | sense rCrCrUrUrArUrGrUrArUrGrCrUrCrArArArUrGdTdT / antisense rCrArUrUrUrGrArGrCrArUrArCrArUrArArGrGdCdC | 65.1%
32 | sense rCrUrArCrArUrUrUrArArArCrUrUrGrCrUrGrUdTdT / antisense rArCrArGrCrArArGrUrUrUrArArArUrGrUrArGdGdA | 82.5%
33 | sense rCrUrCrArArArUrGrGrArArUrCrUrUrArUrGrUdTdT / antisense rArCrArUrArArGrArUrUrCrCrArUrUrUrGrArGdCdA | 55.5%
34 | sense rCrUrGrGrArUrGrArCrUrGrGrCrCrArGrGrArAdTdT / antisense rUrUrCrCrUrGrGrCrCrArGrUrCrArUrCrCrArGdTdA | 75.7%
35 | sense rCrUrGrUrGrGrArUrCrUrGrCrCrUrUrArUrUrGdTdT / antisense rCrArArUrArArGrGrCrArGrArUrCrCrArCrArGdCdA | 79%
36 | sense rCrUrUrArUrGrUrArUrGrCrUrCrArArArUrGrGdTdT / antisense rCrCrArUrUrUrGrArGrCrArUrArCrArUrArArGdGdC | 44%
37 | sense rCrUrUrArUrUrUrArArUrUrUrUrGrGrUrCrUrGdTdT / antisense rCrArGrArCrCrArArArArUrUrArArArUrArArGdAdA | 52.2%
38 | sense rCrUrUrCrUrUrUrCrUrUrCrCrArArGrArArArUdTdT / antisense rArUrUrUrCrUrUrGrGrArArGrArArArGrArArGdAdC | 53.7%
39 | sense rGrArArArGrGrArArUrUrGrUrArUrArArArUrCdTdT / antisense rGrArUrUrUrArUrArCrArArUrUrCrCrUrUrUrCdAdA | 51.4%
40 | sense rGrArGrArGrUrCrUrArCrUrGrGrArUrGrArCrUdTdT / antisense rArGrUrCrArUrCrCrArGrUrArGrArCrUrCrUrCdTdC | 77.3%
41 | sense rGrCrArUrCrArGrArUrArArUrGrGrUrGrUrUrAdTdT / antisense rUrArArCrArCrCrArUrUrArUrCrUrGrArUrGrCdAdT | 92.8%
42 | sense rGrGrArUrGrUrCrUrUrCrUrUrUrCrUrUrCrCrAdTdT / antisense rUrGrGrArArGrArArArGrArArGrArCrArUrCrCdAdA | 83.2%
43 | sense rUrArArArGrUrArUrCrArUrGrGrCrCrUrUrArUdTdT / antisense rArUrArArGrGrCrCrArUrGrArUrArCrUrUrUrAdAdT | 75.9%
44 | sense rUrArCrUrGrGrArUrGrArCrUrGrGrCrCrArGrGdTdT / antisense rCrCrUrGrGrCrCrArGrUrCrArUrCrCrArGrUrAdGdA | 55.2%
45 | sense rUrArGrCrUrArUrGrUrCrUrArCrUrGrCrArCrAdTdT / antisense rUrGrUrGrCrArGrUrArGrArCrArUrArGrCrUrAdTdA | 86.8%
46 | sense rUrArUrArGrCrUrArUrGrUrCrUrArCrUrGrCrAdTdT / antisense rUrGrCrArGrUrArGrArCrArUrArGrCrUrArUrAdAdG | 77.6%
47 | sense rUrArUrGrCrCrArUrGrCrArUrCrArGrArUrArAdTdT / antisense rUrUrArUrCrUrGrArUrGrCrArUrGrGrCrArUrAdTdG | 75.7%
48 | sense rUrArUrGrCrUrCrArArArUrGrGrArArUrCrUrUdTdT / antisense rArArGrArUrUrCrCrArUrUrUrGrArGrCrArUrAdCdA | 54.7%
49 | sense rUrCrArCrArUrGrArCrUrUrGrArGrCrUrUrArUdTdT / antisense rArUrArArGrCrUrCrArArGrUrCrArUrGrUrGrAdAdT | 87%
50 | sense rUrCrGrGrArCrArUrUrUrGrGrArUrGrUrCrUrUdTdT / antisense rArArGrArCrArUrCrCrArArArUrGrUrCrCrGrAdTdT | 83%
51 | sense rUrCrUrUrArUrUrUrArArUrUrUrUrGrGrUrCrUdTdT / antisense rArGrArCrCrArArArArUrUrArArArUrArArGrAdAdA | 44.2%
52 | sense rUrGrArArArArUrGrArCrArGrCrCrUrUrArArAdTdT / antisense rUrUrUrArArGrGrCrUrGrUrCrArUrUrUrUrCrAdAdG | 78.8%
